Laboratory results as given in patent publication US6706740B2, “Fungicidal heterocyclic aromatic amides and their compositions, methods of use and preparation” (Dow AgroSciences LLC, priority 1999, dated 2004).

How the values were obtained:
[1] = test system: Puccinia recondita—PUCCRT; assay: Brown Rust of Wheat, in vivo whole plant, 24 Hour Protectant; settings: 100 ppm spray, 24 hour protectant, wheat, control of fungal infection vs untreated plants; for pest or weed control at 100 ppm: Puccinia, read-out: PUCCRT in vivo 1 Day Protectant
[2] = test system: Stagonospora nodorum (Leptosphaeria nodorum—LEPTNO); assay: In vitro fungal growth inhibition, Stagonospora nodorum (LEPTNO); type: cell-based; settings: Leptosphaeria; 25 ppm in growth medium; read-out: LEPTNO in vitro Growth Inhibition
[3] = test system: Leptosphaeria nodorum—LEPTNO; assay: Glume Blotch of Wheat, in vivo whole plant, 24 Hour Protectant; settings: 100 ppm spray, 24 hour protectant, wheat, control of fungal infection vs untreated plants; for pest or weed control at 100 ppm: Leptosphaeria, read-out: LEPTNO in vivo 1 Day Protectant
[4] = test system: Septoria tritici—SEPTTR; assay: Leaf Blotch of Wheat, in vivo whole plant, 24 Hour Protectant; settings: Zymoseptoria tritici, 24 h, 100 ppm spray, 24 hour protectant, wheat; control of fungal infection vs untreated plants; read-out: SEPTTR in vivo 1 Day Protectant
[5] = test system: Rhizoctonia solani (RHIZSO); assay: microbe, parasite or virus in culture; type: cell-based; settings: Rhizoctonia solani, read-out: RHIZSO in vitro Growth Inhibition
[6] = test system: Phytophthora infestans (PHYTIN); assay: microbe, parasite or virus in culture; type: cell-based; settings: Phytophthora infestans, read-out: PHYTIN in vitro Growth Inhibition
[7] = test system: Magnaporthe grisea (Pyricularia oryzae—PYRIOR); assay: microbe, parasite or virus in culture; type: cell-based; settings: Pyricularia oryzae, read-out: PYRIOR in vitro Growth Inhibition
[8] = test system: Phytophthora infestans—PHYTIN; assay: whole plant or invertebrate; type: in vivo; settings: Phytophthora, in Solanum lycopersicum, 24 h, read-out: PHYTIN in vivo 1 Day Protectant
[9] = test system: Mycosphaerella graminicola (Septoria tritici—SEPTTR); assay: In vitro fungal growth inhibition, Mycosphaerella graminicola (SEPTTR); type: cell-based; settings: Zymoseptoria tritici; 25 ppm in growth medium; read-out: SEPTTR in vitro Growth Inhibition
[10] = test system: Ustilago maydis (USTIMA); assay: microbe, parasite or virus in culture; type: cell-based; settings: Mycosarcoma maydis, read-out: USTIMA in vitro Growth Inhibition
[11] = test system: Erysiphe graminis—ERYSGT; assay: Powdery Mildew of Wheat, in vivo whole plant, 24 Hour Protectant; settings: Erysiphe; 100 ppm spray, 24 hour protectant, wheat; control of fungal infection vs untreated plants; read-out: ERYSGT in vivo 1 Day Protectant

Compound | pest or weed control at 100 ppm [1] [%] | inhibition at 25 ppm [2] [%] | pest or weed control at 100 ppm [3] [%] | melting point | pest or weed control at 100 ppm [4] [%] | inhibition at 25 ppm [5] [%] | inhibition at 25 ppm [6] [%] | inhibition at 25 ppm [7] [%] | pest or weed control at 100 ppm [8] [%] | inhibition at 25 ppm [9] [%] | inhibition at 25 ppm [10] [%] | pest or weed control at 100 ppm [11] [%] | PUCCRT in vivo 1 Day Protectant [1] | LEPTNO in vivo 1 Day Protectant [3]
O=C(NCc1cccc2ccccc12)c1ncccc1O [Compound 228] | < 25 | < 80 | < 25 | 106 to 109 °C | < 25 | < 80 | < 80 | < 80 | 25 to 74 | < 80 | < 80 | < 25 | – | –
CC(NC(=O)c1ncccc1O)c1ccccc1 (stereo not drawn) [Compound 229] | < 25 | < 80 | < 25 | 89 to 91 °C | < 25 | < 80 | < 80 | > 80 | < 25 | > 80 | < 80 | < 25 | – | –
Cc1ccnc(C(=O)NC2CC(C)(C)CC(C)(C)C2)c1O [Compound 236] | < 25 | > 80 | < 25 | 42 to 45 °C | < 25 | < 80 | < 80 | < 80 | < 25 | < 80 | < 80 | < 25 | – | –
Cc1ccnc(C(=O)NC2COC(=O)[C@H](Cc3ccccc3)[C@@H](OC(=O)C(C)C)[C@H](C)OC2=O)c1O (stereo partly drawn) [Compound 237] | – | < 80 | 25 to 74 | 122 to 134 °C | 25 to 74 | < 80 | < 80 | < 80 | < 25 | < 80 | < 80 | < 25 | + + | –
Cc1ccnc(C(=O)Nc2ccc(Oc3cccc(C(F)(F)F)c3)cc2)c1O [Compound 238] | < 25 | < 80 | 25 to 74 | 105 to 107 °C | < 25 | < 80 | < 80 | < 80 | < 25 | < 80 | < 80 | < 25 | – | –
COc1ccnc(C(=O)NC(C)c2ccc(Cl)cc2)c1O (stereo not drawn) [Compound 246] | < 25 | < 80 | – | 140 to 142 °C | 25 to 74 | < 80 | < 80 | < 80 | < 25 | < 80 | < 80 | 25 to 74 | – | + +
COc1ccnc(C(=O)NC2CC(C)(C)CC(C)(C)C2)c1O [Compound 250] | 25 to 74 | > 80 | 25 to 74 | 104 to 106 °C | < 25 | < 80 | > 80 | < 80 | 25 to 74 | < 80 | < 80 | < 25 | – | –
COc1ccnc(C(=O)NC2CC(C)(C)CC(C)(C(=O)c3ccccc3)C2)c1O (stereo not drawn) [Compound 260] | < 25 | > 80 | 25 to 74 | 147 to 149 °C | 25 to 74 | < 80 | < 80 | < 80 | < 25 | < 80 | < 80 | < 25 | – | –
COc1ccnc(C(=O)N[C@@H]2CC(C)(C)C[C@](C)(C(=O)N(C)CCc3ccccc3)C2)c1O [Compound 262] | < 25 | < 80 | 25 to 74 | 59 to 60 °C | 25 to 74 | < 80 | < 80 | < 80 | < 25 | < 80 | < 80 | < 25 | – | –
COc1ccnc(C(=O)NC2CC(C)(C)C(OC(=O)c3ccccc3)C(C)(C)C2)c1O (stereo not drawn) [Compound 268] | 25 to 74 | > 80 | 25 to 74 | 175 to 200 °C | 25 to 74 | < 80 | > 80 | < 80 | < 25 | < 80 | < 80 | < 25 | – | –
COc1ccnc(C(=O)NC2CC(C)(C)C(OC(=O)c3cccc(Cl)n3)C(C)(C)C2)c1O (stereo not drawn) [Compound 269] | 25 to 74 | < 80 | < 25 | 55 to 65 °C | 25 to 74 | < 80 | < 80 | < 80 | < 25 | < 80 | < 80 | < 25 | – | –
COc1ccnc(C(=O)N[C@H]2CC[C@H](Oc3ccc(C(F)(F)F)cc3)CC2)c1O [Compound 270] | 25 to 74 | > 80 | – | 168 to 172 °C (dec.) | 25 to 74 | > 80 | < 80 | > 80 | 25 to 74 | > 80 | > 80 | 25 to 74 | – | + +
COc1ccnc(C(=O)N[C@H]2CC[C@@H](Oc3ccc(C(F)(F)F)cc3)CC2)c1O [Compound 271] | < 25 | > 80 | 25 to 74 | 181 to 183 °C (dec.) | 25 to 74 | > 80 | > 80 | > 80 | 25 to 74 | > 80 | > 80 | < 25 | – | –
